Results: patent publication US20240408085A1, “COMPOUND FOR DEGRADATION OF BCL-2 FAMILY PROTEINS AND MEDICAL APPLICATION THEREOF” (XIZANG HAISCO PHARMACEUTICAL CO., LTD., priority 2021, published 2024)

Test system: MOLT-4 cells
Test: Cell proliferation activity in MOLT-4 cells (72 h, cell viability luminescence)
Type: cell-based, human
Details: Homo sapiens, read-out: IC50 for the inhibition of MOLT-4 cell proliferation
Experimental: MOLT-4 cells are acute lymphoblastic leukemia cell lines in humans. The cells were purchased from ATCC. Culture conditions: RPMI-1640+10% FBS+1% penicillin-streptomycin solution. The cells were cultured in a 37° C., 5% CO2 incubator. The cells were plated in a 96-well plate, with 5×10^3 cells/well. After plating, compounds at different concentrations were added and cultured in a 37° C., 5% CO2 incubator for 72 h. After the completion of culture, a reagent (Promega, G7573) for detecting the cell viability was added. The mixture was uniformly mixed for 2 minutes and then incubated at room temperature for 10 minutes. The luminescence signal was detected with a multimode plate reader (BMG, PHERAstar FSX). The luminescence readings were processed using GraphPad Prism 8.0 software and the IC50 values of the compounds for the inhibition of cell proliferation and the maximum inhibition rate were calculated according to formula (2) and formula (3), respectively, wherein Tadministration denotes the cell signal readings obtained after incubation with the compounds for 72 h, and Tvehicle denotes the cell signal readings obtained after incubation with the vehicle control for 72 h.
Calculation of Max inhibition %: after the processing according to formula (2), the inhibition rate of the compounds at the highest concentration was calculated.

IC50	SMILES
< 500 nM	Cc1ncsc1-c1ccc([C@H](C)NC(=O)[C@@H]2C[C@@H](O)CN2C(=O)[C@@H](NC(=O)CCCCCC(=O)N2C[C@H]3CN(CC[C@H](CSc4ccccc4)Nc4ccc(S(=O)(=O)NC(=O)c5ccc(N6CCN(CC7=C(c8ccc(Cl)cc8F)CCCCC7)CC6)cc5)cc4S(=O)(=O)C(F)(F)F)C[C@H]3C2)C(C)(C)C)cc1 [Compound 39, cis-(2S,4R)-1-((S)-2-(7-(5-((R)-3-((4-(N-(4-(4-((2-(4-chloro-2-fluorophenyl)cyclohept-1-en-1-yl)methyl)piperazin-1-yl)benzoyl)sulfamoyl)-2-((trifluoromethyl)sulfonyl)phenyl)amino)-4-(phenylthio)butyl)hexahydropyrrolo[3,4-c]pyrrol-2(1H)-yl)-7-oxoheptanamido)-3,3-dimethylbutanoyl)-4-hydroxy-N—((S)-1-(4-(4-methylthiazol-5-yl)phenyl)ethyl)pyrrolidine-2-carboxamide]
< 500 nM	O=C1CCC(N2C(=O)c3ccc(N4CCC(CN5CCN(CC[C@H](CSc6ccccc6)Nc6ccc(S(=O)(=O)NC(=O)c7ccc(N8CCN(CC9=C(c%10ccc(Cl)cc%10)CCCCC9)CC8)cc7)cc6S(=O)(=O)C(F)(F)F)CC5)CC4)cc3C2=O)C(=O)N1 (stereo partly drawn) [Compound 45, 4-(4-((2-(4-chlorophenyl)cyclohept-1-en-1-yl)methyl)piperazin-1-yl)-N-((4-(((2R)-4-(4-((1-(2-(2,6-dioxopiperidin-3-yl)-1,3-dioxoisoindolin-5-yl)piperidin-4-yl)methyl)piperazin-1-yl)-1-(phenylthio)butan-2-yl)amino)-3-((trifluoromethyl)sulfonyl)phenyl)sulfonyl)benzamide]
< 500 nM	Cc1ncsc1-c1ccc([C@H](C)NC(=O)[C@@H]2C[C@@H](O)CN2C(=O)[C@@H](NC(=O)CCCCCC(=O)N2CCN(CC[C@H](CSc3ccccc3)Nc3ccc(S(=O)(=O)NC(=O)c4ccc(N5CCN(CC6=C(c7ccc(Cl)cc7F)CCC(C)(C)C6)CC5)cc4)cc3S(=O)(=O)C(F)(F)F)CC2)C(C)(C)C)cc1 [Compound 12, (2S,4R)-1-((S)-2-(7-(4-((R)-3-((4-(N-(4-(4-((4′-chloro-2′-fluoro-4,4-dimethyl-3,4,5,6-tetrahydro-[1,1′-biphenyl]-2-yl)methyl)piperazin-1-yl)benzoyl)sulfamoyl)-2-((trifluoromethyl)sulfonyl)phenyl)amino)-4-(phenylthio)butyl)piperazin-1-yl)-7-oxoheptanamido)-3,3-dimethylbutanoyl)-4-hydroxy-N—((S)-1-(4-(4-methylthiazol-5-yl)phenyl)ethyl)pyrrolidine-2-carboxamide]
< 500 nM	Cc1ncsc1-c1ccc([C@H](C)NC(=O)[C@@H]2C[C@@H](O)CN2C(=O)[C@@H](NC(=O)CCCCCC(=O)N2C[C@@H]3C[C@H]2CN3CC[C@H](CSc2ccccc2)Nc2ccc(S(=O)(=O)NC(=O)c3ccc(N4CCN(CC5=C(c6ccc(Cl)cc6F)CCCCC5)CC4)cc3)cc2S(=O)(=O)C(F)(F)F)C(C)(C)C)cc1 [Compound 37, (2S,4R)-1-((S)-2-(7-((1S,4S)-5-((R)-3-((4-(N-(4-(4-((2-(4-chloro-2-fluorophenyl)cyclohept-1-en-1-yl)methyl)piperazin-1-yl)benzoyl)sulfamoyl)-2-((trifluoromethyl)sulfonyl)phenyl)amino)-4-(phenylthio)butyl)-2,5-diazabicyclo[2.2.1]heptan-2-yl)-7-oxoheptanamido)-3,3-dimethylbutanoyl)-4-hydroxy-N—((S)-1-(4-(4-methylthiazol-5-yl)phenyl)ethyl)pyrrolidine-2-carboxamide]
< 500 nM	Cc1ncsc1-c1ccc([C@H](C)NC(=O)[C@@H]2C[C@@H](O)CN2C(=O)[C@@H](NC(=O)CCCCCCC(=O)N2C[C@H]3CN(CC[C@H](CSc4ccccc4)Nc4ccc(S(=O)(=O)NC(=O)c5ccc(N6CCN(CC7=C(c8ccc(Cl)cc8)CCC(C)(C)C7)CC6)cc5)cc4S(=O)(=O)C(F)(F)F)C[C@H]3C2)C(C)(C)C)cc1 [Compound 17, cis-(2S,4R)-1-((S)-2-(8-(5-((R)-3-((4-(N-(4-(4-((4′-chloro-4,4-dimethyl-3,4,5,6-tetrahydro-[1,1′-biphenyl]-2-yl)methyl)piperazin-1-yl)benzoyl)sulfamoyl)-2-((trifluoromethyl)sulfonyl)phenyl)amino)-4-(phenylthio)butyl)hexahydropyrrolo[3,4-c]pyrrol-2(1H)-yl)-8-oxooctanamido)-3,3-dimethylbutanoyl)-4-hydroxy-N—((S)-1-(4-(4-methylthiazol-5-yl)phenyl)ethyl)pyrrolidine-2-carboxamide]
< 500 nM	Cc1ncsc1-c1ccc([C@H](C)NC(=O)[C@@H]2C[C@@H](O)CN2C(=O)[C@@H](NC(=O)CCCCCCC(=O)N2C[C@@H]3C[C@H]2CN3CC[C@H](CSc2ccccc2)Nc2ccc(S(=O)(=O)NC(=O)c3ccc(N4CCN(CC5=C(c6ccc(Cl)cc6)CCC(C)(C)C5)CC4)cc3)cc2S(=O)(=O)C(F)(F)F)C(C)(C)C)cc1 [Compound 25, (2S,4R)-1-((S)-2-(8-((1S,4S)-5-((R)-3-((4-(N-(4-(4-((4′-chloro-4,4-dimethyl-3,4,5,6-tetrahydro-[1,1′-biphenyl]-2-yl)methyl)piperazin-1-yl)benzoyl)sulfamoyl)-2-((trifluoromethyl)sulfonyl)phenyl)amino)-4-(phenylthio)butyl)-2,5-diazabicyclo[2.2.1]heptan-2-yl)-8-oxooctanamido)-3,3-dimethylbutanoyl)-4-hydroxy-N—((S)-1-(4-(4-methylthiazol-5-yl)phenyl)ethyl)pyrrolidine-2-carboxamide]
< 500 nM	Cc1ncsc1-c1ccc([C@H](C)NC(=O)[C@@H]2C[C@@H](O)CN2C(=O)[C@@H](NC(=O)CCCCCCC(=O)N2C[C@@H]3C[C@H]2CN3CC[C@H](CSc2ccccc2)Nc2ccc(S(=O)(=O)NC(=O)c3ccc(N4CCN(CC5=C(c6ccc(Cl)cc6F)CCCCC5)CC4)cc3)cc2S(=O)(=O)C(F)(F)F)C(C)(C)C)cc1 [Compound 38, (2S,4R)-1-((S)-2-(8-((1S,4S)-5-((R)-3-((4-(N-(4-(4-((2-(4-chloro-2-fluorophenyl)cyclohept-1-en-1-yl)methyl)piperazin-1-yl)benzoyl)sulfamoyl)-2-((trifluoromethyl)sulfonyl)phenyl)amino)-4-(phenylthio)butyl)-2,5-diazabicyclo[2.2.1]heptan-2-yl)-8-oxooctanamido)-3,3-dimethylbutanoyl)-4-hydroxy-N—((S)-1-(4-(4-methylthiazol-5-yl)phenyl)ethyl)pyrrolidine-2-carboxamide]
< 500 nM	Cc1ncsc1-c1ccc([C@H](C)NC(=O)[C@@H]2C[C@@H](O)CN2C(=O)[C@@H](NC(=O)CCCCCC(=O)N2C[C@H]3CN(CC[C@H](CSc4ccccc4)Nc4ccc(S(=O)(=O)NC(=O)c5ccc(N6CCN(CC7=C(c8ccc(Cl)cc8)CCCCC7)CC6)cc5)cc4S(=O)(=O)C(F)(F)F)C[C@H]3C2)C(C)(C)C)cc1 [Compound 41, cis-(2S,4R)-1-((S)-2-(7-(5-((R)-3-((4-(N-(4-(4-((2-(4-chlorophenyl)cyclohept-1-en-1-yl)methyl)piperazin-1-yl)benzoyl)sulfamoyl)-2-((trifluoromethyl)sulfonyl)phenyl)amino)-4-(phenylthio)butyl)hexahydropyrrolo[3,4-c]pyrrol-2(1H)-yl)-7-oxoheptanamido)-3,3-dimethylbutanoyl)-4-hydroxy-N—((S)-1-(4-(4-methylthiazol-5-yl)phenyl)ethyl)pyrrolidine-2-carboxamide]
